Key:
[1] = test system: guinea pig isolated hearts; assay: bupivacaine-induced QRS prolongation in isolated hearts (FIG. 8); conditions: bupivacaine (1 μM); isolated hearts paced at 200 BPM
[2] = cited from earlier work
[3] = at toxic plasma concentration; cited from earlier work

CCCCN1CCCCC1C(=O)Nc1c(C)cccc1C (stereo not shown) [Bupivacaine, bupivacaine]
QRS prolongation [1]: induces QRS prolongation

CN(C)CCC=C1c2ccccc2CCc2ccccc21 [amitriptyline]
plasma concentration that begins to cause cardiac toxicity ([2]; in vivo): ~1,000 ng/ml
bound in plasma [3]: 94.8±0.8%

C[C@H]1O[C@@H](O[C@H]2[C@@H](O)C[C@H](O[C@H]3[C@@H](O)C[C@H](O[C@H]4CC[C@@]5(C)[C@H](CC[C@@H]6[C@@H]5C[C@@H](O)[C@]5(C)[C@@H](C7=CC(=O)OC7)CC[C@]65O)C4)O[C@@H]3C)O[C@@H]2C)C[C@H](O)[C@@H]1O [digoxin]
concentration at which toxicity is caused ([2]; low concentrations): approximately 1 nM
